Read-outs that look alike come from different tables or passages of the source.
Experiments:
[1] = test system: human cytomegalovirus (HCMV); assay: microbe, parasite or virus in culture; assay type: cell-based, Towne strain; settings: for IC50: Human betaherpesvirus 5, HFF, read-out: HCMV; for antiviral activity against HCMV (in words): comment on Table 1 data
Protocol: (§1) The routine growth and passage of KB and BSC-1 cells was performed in monolayer cultures using minimal essential medium (MEM) with either Hanks salts [MEM(H)] or Earle salts [MEM(E)] supplemented with 10% calf serum. The sodium bicarbonate concentration was varied to meet the buffering capacity required. Cultures of diploid human foreskin fibroblast (HFF) or MRC-5 cells were grown in medium consisting of MEM(E) with 10% fetal bovine serum. Cells were passaged at 1:2 to 1:10 dilutions according to conventional procedures by using 0.05% trypsin plus 0.02% EDTA in a HEPES buffered salt solution (HBS) [Shipman, C., Jr., Proc. Soc. […] HFF and MRC-5 cells were passaged only at 1:2 dilutions. The Towne strain, plaque-purified isolate Po, of HCMV was kindly provided by Dr. Mark Stinski, University of Iowa. The KOS strain of HSV-1 was used in most experiments and was provided by Dr. Sandra K. Weller, University of Conn.
Stock HCMV was prepared by infecting HFF cells at a multiplicity of infection (m.o.i.) of <0.01 plaque-forming units (p.f.u.) per cell. Cell growth medium was changed every four days until cytopathology was evident in all cells (approximately 21 days). Supernatant fluids were retained as the virus stock.
Virus titers were determined using monolayer cultures of HFF cells for HCMV and monolayer cultures of BSC-1 cells for HSV-1 as described earlier [Prichard, M. N., et al., J. Virol. […] Briefly, HFF or BSC-1 cells were planted as described above in 96-well cluster dishes and incubated overnight at 37. degree. C. in a humidified 3% C02 -97% air atmosphere. The next day cultures were inoculated with HCMV or HSV-1 and serially diluted 1:3 across the remaining eleven columns of the 96-well plate. Cultures were incubated at 37. degree. C. for 2 hr to permit virus adsorption and then virus inoculum was replaced with 0.2 ml of fresh medium. Cultures were incubated for seven days for HCMV, two or three days for HSV-1, the medium was removed, and the cell sheets were stained with 0.1% crystal violet in 20% methanol.
HFF cells in 24-well cluster dishes were infected with approximately 100 p.f.u. of HCMV per cm^2 cell sheet using the procedures detailed above. Following virus adsorption, compounds dissolved in growth medium were added to duplicate wells in four to eight selected concentrations. After incubation at 37° C. for 7 to 10 days, cell sheets were fixed, stained with crystal violet and microscopic plaques enumerated as described above.
After virus adsorption, inoculum was replaced with 0.2 mL of fresh medium containing test compounds. The first row of 12 wells was left undisturbed and served as virus controls. Each well in the second row received an additional 0.1 mL of medium with test compound at three times the desired final concentration. The contents of the 12 wells were mixed by repeated pipetting and then serially diluted 1:3 along the remaining wells. In this manner, six compounds could be tested in duplicate on a single plate with concentrations from […]. Plates were incubated at 37° C. for seven days, subjected to one cycle of freezing and thawing; aliquots from each of the eight wells of a given column were transferred to the first column of a fresh 96-well monolayer culture of HFF cells. Contents were mixed and serially diluted 1:3 across the remaining eleven columns of the secondary plate. Each column of the original primary plate was diluted across a separate plate in this manner. Cultures were incubated, plaques were enumerated, and titers calculated as described above.
(§2) Dose-response relationships were constructed by linearly regressing the percent inhibition of parameters derived in the preceding sections against logarithm 10 drug concentrations. […] Samples containing positive controls (acyclovir for HSV-1 and ganciclovir for HCMV) were used in all assays.

[2] = test system: herpes simplex virus type 1 (HSV-1); assay: HSV-1 ELISA in BSC-1 cells; assay type: cell-based, KOS strain; settings: read-out: HSV-1
Protocol: as §1
High titer HSV-1 stocks were prepared by infecting BSC cells at an m.o.i. of <0.1 as detailed previously [Turk, S. R., et al., Antimicrob.
Ninety-six-well cluster dishes were planted with 10,000 BSC-1 cells per well in 200 μL per well of MEM(E) plus 10% calf serum. After overnight incubation at 37° C., selected drug concentrations in quadruplicate and HSV-1 at a concentration of 100 p.f.u./well were added. Following a 3-day incubation at 37° C., medium was removed, plates were blocked, rinsed, and horse radish peroxidase conjugated rabbit anti-HSV-1 antibody was added. Following removal of the antibody containing solution, plates were rinsed, and then developed by adding 150 μL per well of a solution of tetramethylbenzidine as substrate. The reaction was stopped with H2SO4 and absorbance was read at 450 and 570 nm. Drug effects were calculated as a percentage of the reduction in absorbance in the presence of each drug concentration compared to absorbance obtained with virus in the absence of drug.
as §2

[3] = test system: human foreskin fibroblasts (HFF cells); assay: Cytotoxicity in stationary HFF cells (microscopic inspection of plaque assay cells); assay type: cell-based; settings: read-out: HFF
Protocol: (§3) Two different assays were used to explore cytotoxicity of selected compounds: (i) Cytotoxicity produced in stationary HFF cells was determined by microscopic inspection of cells used in plaque assays which were not affected by the virus [Turk, S. R., et al, Antimicrob.
as §2

KB cells = assay: Cytotoxicity: KB cell growth (crystal violet staining); assay type: cell-based; settings: Homo sapiens, read-out: KBgrv
Protocol: as §3
Briefly, 96-well cluster dishes were planted with KB cells at 3000-5000 cells per well. After overnight incubation at 37° C., test compound was added in quadruplicate at six to eight concentrations. Plates were incubated at 37° C for 48 hours in a CO2 incubator, rinsed, fixed with 95% ethanol, and stained with 0.1% crystal violet. Acidified ethanol was added and plates read at 570 nm in a spectrophotometer designed to read 96-well ELISA assay plates.
as §2

[4] = Human alphaherpesvirus 1, 72 h, Table 1, fifty-percent inhibitory concentration, ELISA, BSC-1 cells, 3-day incubation
[5] = Table 1, cytotoxicity, stationary HFF cells, visual
[6] = Table 1, cytotoxicity, KB cell growth, 48 hours
[7] = Human alphaherpesvirus 1, BSC-1, 72 h

Compound	IC50 [1]	antiviral activity against HCMV (in words) [1]	IC50 [2, 4]	IC50 [3, 5]	IC50 (KB cells; [6])	IC50 [2, 7]	IC50 ([3]; HFF)	IC50 (KB cells; KB, 48 h)
N#Cc1c(N)n(CCCc2ccccc2)c2ncnc(N)c12 [Compound 1350, 4,6-diamino-7-(3-phenyl)propyl-pyrrolo[2,3-d]pyrimidine-5-carbonitrile]	5 µM	excellent activity	121 µM	> 100 µM	50 µM	–	–	–
N#Cc1c(N)n(CC=Cc2ccccc2)c2ncnc(N)c12 [Compound 1329, 4,6-diamino-7-(3-phenyl)prop-2-enyl-pyrrolo[2,3-d]pyrimidine-5-carbonitrile]	19 µM	–	40 µM	46 µM	33 µM	–	–	–
NC(=S)c1cn(CCc2ccccc2)c2ncnc(N)c12 [Compound 1446, 4-amino-7-(2-phenyl)ethyl-pyrrolo[2,3-d]pyrimidine-5-thiocarboxamide]	> 1 µM	excellent activity	0.65 µM	100 µM	10 µM	–	–	–
N#Cc1c(N)n(Cc2ccc(Cl)cc2)c2ncnc(N)c12 [Compound 1356, 4,6-diamino-7-(4-chlorobenzyl)-pyrrolo[2,3-d]pyrimidine-5-carbonitrile]	0.2 µM	good to excellent antiviral activity	17 µM	46 µM	76 µM	–	–	–
N#Cc1c(N)n(Cc2ccc(F)cc2)c2ncnc(N)c12 [Compound 1365, 4,6-diamino-7-(4-flourobenzyl)-pyrrolo[2,3-d]pyrimidine-5-carbonitrile]	0.3 µM	good to excellent antiviral activity	33 µM	> 100 µM	60 µM	–	–	–
CC(c1ccccc1)n1cc(C#N)c2c(N)ncnc21 (centres unmarked) [Compound 1414, 4-amino-7-((2-phenyl)eth-2-yl)-pyrrolo[2,3-d]pyrimidine-5-carbonitrile]	17 µM	–	45 µM	> 120 µM	20 µM	–	–	–
N#Cc1cn(CCCc2ccccc2)c2ncnc(N)c12 [Compound 1362, 4-amino-7-(3-phenyl)propyl-pyrrolo[2,3-d]pyrimidine-5-carbonitrile]	> 10 µM	–	> 100 µM	> 10 µM	> 100 µM	–	–	–
Cc1ccc(Cn2c(Br)c(C(N)=O)c3c(N)ncnc32)cc1 [Compound 1427, 4-amino-6-bromo-7-(4-methylbenzyl)-pyrrolo[2,3-d]pyrimidine-5-carboxamide]	> 10 µM	–	–	–	–	> 100 µM	> 10 µM	> 100 µM
Cc1ccc(Cn2cc(C(N)=O)c3c(N)ncnc32)cc1 [Compound 658, 4-amino-7-(4-methylbenzyl)-pyrrolo [2,3-d]pyrimidine-5-carboxamide]	181 µM	–	–	–	–	> 100 µM	141 µM	≥ 222 µM
N#Cc1c(N)n(CCc2ccccc2)c2ncnc(N)c12 [Compound 1369, 4,6-diamino-7-(2-phenyl)ethyl-pyrrolo[2,3-d]pyrimidine-5-carbonitrile]	< 0.1 µM	excellent activity	0.3 µM	100 µM	82 µM	–	–	–
N#Cc1cn(CCc2ccccc2)c2ncnc(N)c12 [Compound 1368, 4-amino-7-(2-phenyl)ethyl-pyrrolo[2,3-d]pyrimidine-5-carbonitrile]	0.7 µM	excellent activity	10 µM	32 µM	> 100 µM	–	–	–
COc1ccc(Cn2cc(C(N)=O)c3c(N)ncnc32)cc1 [Compound 839, 4-amino-7-(4-methoxybenzyl)-pyrrolo[2,3-d]pyrimidine-5-carboxamide]	13 µM	good to excellent antiviral activity	–	–	–	35 µM	127 µM	47 µM
N#Cc1c(N)n(Cc2ccc(N)cc2)c2ncnc(N)c12 [Compound 1352, 4,6-diamino-7-(4-aminobenzyl)-pyrrolo[2,3-d]pyrimidine-5-carbonitrile]	> 100 µM	good to excellent antiviral activity	100 µM	> 100 µM	146 µM	–	–	–
NC(=S)c1cn(CCCc2ccccc2)c2ncnc(N)c12 [Compound 1413, 4-amino-7-(3-phenyl)propyl-pyrrolo[2,3-d]pyrimidine-5-thiocarboxamide]	0.5 µM	excellent activity	1.5 µM	32 µM	38 µM	–	–	–
N#Cc1c(Br)n(Cc2cccc([N+](=O)[O-])c2)c2ncnc(N)c12 [Compound 1374, 4-amino-6-bromo-7-(3-nitrobenzyl)-pyrrolo[2,3-d]pyrimidine-5-carbonitrile]	> 10 µM	–	> 100 µM	> 10 µM	> 100 µM	–	–	–
NC(=O)c1c(Br)n(CCc2ccccc2)c2ncnc(N)c12 [Compound 1409, 4-amino-6-bromo-7-(2-phenyl)ethyl-pyrrolo[2,3-d]pyrimidine-5-carboxamide]	100 µM	lost	> 100 µM	> 100 µM	> 100 µM	–	–	–
N#Cc1cn(Cc2cccc([N+](=O)[O-])c2)c2ncnc(N)c12 [Compound 1382, 4-amino-7-(3-nitrobenzyl)-pyrrolo[2,3-d]pyrimidine-5-carbonitrile]	> 10 µM	–	> 100 µM	> 10 µM	> 100 µM	–	–	–
N#Cc1c(Br)n(Cc2cccc(Cl)c2)c2ncnc(N)c12 [Compound 1461, 4-amino-6-bromo-7-(3-chlorobenzyl)-pyrrolo[2,3-d]pyrimidine-5-carbonitrile]	> 100 µM	–	> 100 µM	> 100 µM	> 100 µM	–	–	–
N#Cc1c(Br)n(CCCc2ccccc2)c2ncnc(N)c12 [Compound 1347, 4-amino-6-bromo-7-(3-phenyl)propyl-pyrrolo[2,3-d]pyrimidine-5-carbonitrile]	> 10 µM	–	≥ 222 µM	> 10 µM	> 100 µM	–	–	–
